Measured values: publication PMC12040169 (PLOS Biology, 2025)

Assay: in vitro
Conditions: human, hela cells, % viability
`CC1=C(C)CC(C(=O)Nc2ccc(C(=O)NCc3cccnc3)cc2)C(C(=O)O)C1` (stereo not shown) [CBK286567] showed a viability at 28.5 h, 10 µM of 78.8%. `O=C(CCCN1C(=O)/C(=C\c2cccs2)SC1=S)Nc1cccc(C(=O)O)c1` [CBK263636] gave a viability at 28.5 h, 10 µM of 98.4%. `OC(CN1CCC(O)(c2ccc3c(c2)OCO3)CC1)c1ccc2c(c1)CCC2` (stereo not shown) [CBK286326] gave a viability at 28.5 h, 10 µM of 99.6%. For `O=C(COc1ccccc1)NC1C(=O)N2C(C(=O)O)=C(Cl)CSC12` (stereo not shown) [CBK266903], the viability at 28.5 h, 10 µM was 92.7%. `O=S(=O)(Nc1nccnc1N1CCN(c2ccccc2)CC1)c1ccc(F)cc1` [CBK048706] showed a viability at 28.5 h, 10 µM of 94.2%. In the case of `FC(F)(F)c1ccnc(OCCN2CCNCC2)n1` [CBK113297], the viability at 28.5 h, 10 µM is reported as 97.5%. In the case of `CC1CN(C)C(c2ccccc2)C(C)C12NC(=O)N=C2O` (stereo not shown) [CBK288428], the viability at 28.5 h, 10 µM is reported as 88.1%. For `O=C(O)Cc1nnc(CNc2ccc(Cl)cc2)[nH]1` [CBK286651], the viability at 28.5 h, 10 µM was 81.7%. `CS(=O)(=O)Nc1ccc(-c2ccc3c(c2)CCO3)c2ccccc12` [CBK083753] gave a viability at 28.5 h, 10 µM of 76.5%. Work on `CCCc1ccc(C(C)NC(=O)C2CC2C)cc1` (stereo not shown) [CBK057847] yielded a viability at 28.5 h, 10 µM of 82.4%. In the case of `O=C(NCCc1nc2ccccc2[nH]1)Nc1ccccc1` [CBK261803], the viability at 28.5 h, 10 µM is reported as 103%. Molecule `Cn1c(=O)oc2cc(Br)ccc21` [CBK027375] has a viability at 28.5 h, 10 µM of 108%. For `Cc1ccc(-c2csc(C3CN4CCCC4CO3)n2)s1` (stereo not shown) [CBK304113], the viability at 28.5 h, 10 µM was 121%. Molecule `Cc1ccc(NS(=O)(=O)c2ccc(OC(F)(F)F)cc2)nc1` [CBK043577] has a viability at 28.5 h, 10 µM of 95.8%. In the case of `CCC1C(=O)NCCN1C(=O)Cc1cccc2cccnc12` (stereo not shown) [CBK281728], the viability at 28.5 h, 10 µM is reported as 104%. In the case of `CCOC(=O)c1sc2nccc(N(C)C)c2c1-n1cccc1` [CBK115381], the viability at 28.5 h, 10 µM is reported as 93.4%. With `CCCN(CC1CC1)C1CCc2cccc(C(N)=O)c2C1` (stereo not shown) [CBK016579] the viability at 28.5 h, 10 µM was 114%. For `Cc1ccccc1OCCNS(=O)(=O)c1cccc([N+](=O)[O-])c1` [CBK264195], the viability at 28.5 h, 10 µM was 106%. In the case of `COc1ccc(C(=O)Nc2ccc(N3CCN(C(=O)C(C)(C)C)CC3)cc2)cc1OC` [CBK270245], the viability at 28.5 h, 10 µM is reported as 90.6%. `Cc1sc(-c2cnccn2)nc1O` [CBK067738] showed a viability at 28.5 h, 10 µM of 97.3%. With `Nc1c(Cc2c(Cl)cccc2Cl)c(=O)n2n1CCC2` [CBK088948] the viability at 28.5 h, 10 µM was 98.9%. Molecule `Nc1nonc1-c1nc2ccccc2n1Cc1cc2c(cc1Br)OCO2` [CBK267961] has a viability at 28.5 h, 10 µM of 105%. With `CCCc1cc(C(=O)Nc2nccs2)cs1` [CBK288212] the viability at 28.5 h, 10 µM was 83.9%. With `COc1ccc(F)c(CN(CC(C)(C)CN)C(=O)Nc2ccccc2C(C)(C)C)c1` [CBK002478C] the viability at 28.5 h, 10 µM was 98.1%. Work on `CC(C)(CO)CNC(=O)c1cnc(-c2ccccc2)c(-c2ccncc2)c1` [CBK036734] yielded a viability at 28.5 h, 10 µM of 111%. `N#CC(CC(=O)O)C(Cc1ccccc1)c1ccccc1` (stereo not shown) [CBK286837] showed a viability at 28.5 h, 10 µM of 107%. `CC(=O)c1c(-c2cccc(C(=O)N(C)C3CCN(C)C3)c2)cnn1C` (stereo not shown) [CBK306633] gave a viability at 28.5 h, 10 µM of 106%. Work on `O=C(Nc1ccc2c(c1)CCO2)N1CCCC1c1nc(-c2ccccc2)c2ccccn12` (stereo not shown) [CBK046733] yielded a viability at 28.5 h, 10 µM of 117%. In the case of `Cc1ccn(-c2ccc(N3CCC(OC4CCOCC4)CC3)nn2)n1` [CBK306296], the viability at 28.5 h, 10 µM is reported as 87%. In the case of `O=[N+]([O-])c1cccc(Cn2c(CO)nc3ccccc32)c1` [CBK297515], the viability at 28.5 h, 10 µM is reported as 95.4%. `O=C(Nc1ccccc1)[C@H]1O[C@H](CCN2CCN(c3ccccc3)CC2)CC[C@@H]1O` [CBK288725] showed a viability at 28.5 h, 10 µM of 84.1%. Work on `CC(=O)c1cccc(NC(=O)c2cc(S(=O)(=O)N(C)C)ccc2Cl)c1` [CBK265732] yielded a viability at 28.5 h, 10 µM of 111%. `NS(=O)(=O)c1ccc(NC(=O)CCC2COc3ccccc3O2)cc1` (stereo not shown) [CBK267696] gave a viability at 28.5 h, 10 µM of 87.9%. In the case of `Cn1cc(C(=O)NC2CCN(c3ccc(C#N)cc3F)CC2)cn1` [CBK304939], the viability at 28.5 h, 10 µM is reported as 83.7%. With `CC1(CNS(=O)(=O)Cc2cc(F)cc(F)c2)COC1` [CBK281413] the viability at 28.5 h, 10 µM was 91.3%. `Cc1cccc(-c2ccc(CC3(C(N)=O)CCN(C(=O)Cc4ccccc4)CC3)cc2)c1` [CBK285780] gave a viability at 28.5 h, 10 µM of 101%. `CC(=O)Nc1cccc(CNC(=O)c2cccnc2OCC(F)(F)F)c1` [CBK304557] gave a viability at 28.5 h, 10 µM of 87.2%. `Cc1cccn2cc(C(=O)NC(C)CN3CCCC3)nc12` (stereo not shown) [CBK281714] gave a viability at 28.5 h, 10 µM of 99.6%. With `CC(Oc1ccc(/C=C/[N+](=O)[O-])cc1)C(=O)O` (stereo not shown) [CBK264042] the viability at 28.5 h, 10 µM was 99.9%. `O=C(Nc1ccc2ncccc2c1)c1ccc(Cl)cc1Cl` [CBK159793] gave a viability at 28.5 h, 10 µM of 96.5%. With `CCC(C)(C)NC(=NC#N)Nc1cccnc1` [CBK016580] the viability at 28.5 h, 10 µM was 85.1%. For `O=C(OCCC1SC(NC2CC3C=CC2C3)=NC1=O)c1ccc(Cl)c(Cl)c1` (stereo not shown) [CBK200056T], the viability at 28.5 h, 10 µM was 87.1%. For `C[C@@H]1C[C@H](Nc2ccccc2)c2ccccc2N1C(=O)CCC(=O)O` [CBK286820], the viability at 28.5 h, 10 µM was 95.8%. With `O=C(CSc1nnc(-c2cccnc2)n1Cc1ccccc1)Nc1ccc(F)cc1` [CBK267528] the viability at 28.5 h, 10 µM was 96.8%. Work on `c1ccc(-c2nnc3ccccc3c2NCCCN2CCOCC2)cc1` [CBK066892] yielded a viability at 28.5 h, 10 µM of 93.9%. For `CC(=O)Nc1ccc(S(=O)(=O)Nc2cccc(C(=O)O)c2)cc1` [CBK050407], the viability at 28.5 h, 10 µM was 98.7%. In the case of `COc1ccc2c(c1)CC(=O)NC21CCN(C(=O)NC(C)C)CC1` [CBK047261], the viability at 28.5 h, 10 µM is reported as 95.7%. In the case of `Nc1ccc(-c2nnc(SCC(=O)Nc3ccc(Br)cc3F)n2-c2ccccc2)cc1` [CBK267175], the viability at 28.5 h, 10 µM is reported as 98.8%. With `COc1ccc(Br)c(C(=O)Nc2[nH]nc(O)c2Cc2c(Cl)cccc2Cl)c1` [CBK084554] the viability at 28.5 h, 10 µM was 111%. For `CC1CCN(Cc2ccc(-c3nnn(CC(=O)NCc4ccc(C(F)(F)F)cn4)n3)cc2)CC1` [CBK149722T], the viability at 28.5 h, 10 µM was 104%. In the case of `Cc1nc(NC(=N)Nc2ccccc2C(F)(F)F)[nH]c(=O)c1Cc1ccccc1` [CBK269083], the viability at 28.5 h, 10 µM is reported as 99.8%. Work on `C[C@@H]1CN(C(=O)c2cc3c(C(=O)OC(C)(C)C)ncn3c3ccc(Cl)cc23)C[C@H](C)N1` [CBK016744] yielded a viability at 28.5 h, 10 µM of 115%. For `Cc1ccc(S(=O)(=O)Nc2ccc(C(C)C)cc2)cc1C(=O)O` [CBK297766], the viability at 28.5 h, 10 µM was 84.2%. With `COc1ccc(CN2CCOCC2CC(=O)O)cc1Cn1cncn1` (stereo not shown) [CBK307220] the viability at 28.5 h, 10 µM was 92.7%. `O=C(NCC1CCCO1)c1ccc(CNS(=O)(=O)c2cccc(Cl)c2)cc1` (stereo not shown) [CBK267219] showed a viability at 28.5 h, 10 µM of 88.6%. For `Cc1noc(-c2cn(C)nc2C2CCCCN2CC2CC2)c1C` (stereo not shown) [CBK283408], the viability at 28.5 h, 10 µM was 88.1%. With `COc1ccc(NC(=O)c2ccc3c(c2)C(=O)N(Cc2ccncc2)C3=O)cc1` [CBK269660] the viability at 28.5 h, 10 µM was 97.7%. `CN(C)Cc1nc(C(=O)N2CCn3nc(C(O)C4CC4)cc3C2)cs1` (stereo not shown) [CBK307489] showed a viability at 28.5 h, 10 µM of 101%. For `CN(CCCn1c(=S)[nH]c2ccccc2c1=O)C1CCCCC1` [CBK296642], the viability at 28.5 h, 10 µM was 103%. In the case of `Cn1ccnc1C1(O)CC2CCC(C1)N2C(=O)c1ccc(F)cc1` (stereo not shown) [CBK284086], the viability at 28.5 h, 10 µM is reported as 98.4%. `O=C(Cc1cccc2ccccc12)Nc1ccc(Br)cc1C(=O)O` [CBK268286] showed a viability at 28.5 h, 10 µM of 99.2%. Molecule `COc1ccc(C(=O)Nc2ccc(S(=O)(=O)N3CCN(C)CC3)cc2)cc1[N+](=O)[O-]` [CBK268140] has a viability at 28.5 h, 10 µM of 97%. In the case of `CC(OC(=O)c1ccc2c(c1)C(=O)N(c1ccc(Cl)cc1)C2=O)C(=O)c1ccccc1` (stereo not shown) [CBK156661], the viability at 28.5 h, 10 µM is reported as 111%. In the case of `Nc1ccc(C(=O)Oc2ccc(Oc3ccccc3)cc2)cc1` [CBK083570], the viability at 28.5 h, 10 µM is reported as 90.5%.
